Experiments:
[1] = Stability of cisatracurium salt in different eluent mixtures (HPLC assay of isomer content over time); assay type: physicochemical; settings: for % of the 1R-cis,1′R-cis isomer in the eluent composition: room temperature
Description: Table 6 illustrates how the amount of the 1R-cis,1′R-cis isomer changes at room temperature as a function of time in 3 different eluent mixtures. The (1R,1′R)-atracurium besylate isomer mixture was dissolved in the eluent and the resulting solutions were allowed to stand at room temperature for a period of 26 hours. After certain time intervals, as specified in Table 6, samples were withdrawn from each one of the 3 solutions and assayed by HPLC to determine the amount of the 1R-cis,1′R-cis isomer in the mixture.
The stability of the cisatracurium salt in the eluent mixture at 25° C. is presented in FIG. 1 whereby two plots are compared, that is, the plot describing the stability of the 1R-cis,1′R-cis isomer in the eluent mixture of 80:10:10 dichloromethane:DMSO:formic acid of the present invention (Column A in Table 6) vs. the plot of the dichloromethane:MeOH:benzenesulfonic acid eluent system, described in U.S. Pat. No. 5,556,978, example 2 (Column C in Table 6).

[2] = cited from earlier work

change of the content of the 1R-cis,1′R-cis isomer in the eluent mixture ([1]; dichloromethane:DMSO:formic acid eluent mixture, after 26 hours): remains unchanged
decrease of the content of the 1R-cis,1′R-cis isomer in the eluent mixture ([1]; dichloromethane:methanol:benzenesulfonic acid eluent (U.S. 5,556,978, example 2), after 26 hours at room temperature): more than 3%
% of the 1R-cis,1′R-cis isomer in the eluent composition ([1]; eluent A dichloromethane:DMSO:formic acid 80:10:10, 0 hours): 55.1%
% of the 1R-cis,1′R-cis isomer in the eluent composition ([1]; eluent A dichloromethane:DMSO:formic acid 80:10:10, 2 hours): 55.4%
% of the 1R-cis,1′R-cis isomer in the eluent composition ([1]; eluent A dichloromethane:DMSO:formic acid 80:10:10, 11 hours): 55.2%
% of the 1R-cis,1′R-cis isomer in the eluent composition ([1]; eluent A dichloromethane:DMSO:formic acid 80:10:10, 12 hours): 55.1%
% of the 1R-cis,1′R-cis isomer in the eluent composition ([1]; eluent A dichloromethane:DMSO:formic acid 80:10:10, 24 hours): 55.3%
% of the 1R-cis,1′R-cis isomer in the eluent composition ([1]; eluent A dichloromethane:DMSO:formic acid 80:10:10, 26 hours): 55.4%
% of the 1R-cis,1′R-cis isomer in the eluent composition ([1]; eluent B dichloromethane:DMSO:benzenesulfonic acid 90:10:0.006, 0 hours): 55.3%
% of the 1R-cis,1′R-cis isomer in the eluent composition ([1]; eluent B dichloromethane:DMSO:benzenesulfonic acid 90:10:0.006, 2 hours): 55.3%
% of the 1R-cis,1′R-cis isomer in the eluent composition ([1]; eluent B dichloromethane:DMSO:benzenesulfonic acid 90:10:0.006, 11 hours): 55.3%
% of the 1R-cis,1′R-cis isomer in the eluent composition ([1]; eluent B dichloromethane:DMSO:benzenesulfonic acid 90:10:0.006, 12 hours): 55.3%
% of the 1R-cis,1′R-cis isomer in the eluent composition ([1]; eluent B dichloromethane:DMSO:benzenesulfonic acid 90:10:0.006, 24 hours): 55.3%
% of the 1R-cis,1′R-cis isomer in the eluent composition ([1]; eluent B dichloromethane:DMSO:benzenesulfonic acid 90:10:0.006, 26 hours): 55.2%
% of the 1R-cis,1′R-cis isomer in the eluent composition ([1]; eluent C dichloromethane:methanol:benzenesulfonic acid 4000:500:0.5, 0 hours): 55.3%
% of the 1R-cis,1′R-cis isomer in the eluent composition ([1]; eluent C dichloromethane:methanol:benzenesulfonic acid 4000:500:0.5, 2 hours): 54.9%
% of the 1R-cis,1′R-cis isomer in the eluent composition ([1]; eluent C dichloromethane:methanol:benzenesulfonic acid 4000:500:0.5, 11 hours): 53.4%
% of the 1R-cis,1′R-cis isomer in the eluent composition ([1]; eluent C dichloromethane:methanol:benzenesulfonic acid 4000:500:0.5, 12 hours): 53.7%
% of the 1R-cis,1′R-cis isomer in the eluent composition ([1]; eluent C dichloromethane:methanol:benzenesulfonic acid 4000:500:0.5, 24 hours): 52.6%
% of the 1R-cis,1′R-cis isomer in the eluent composition ([1]; eluent C dichloromethane:methanol:benzenesulfonic acid 4000:500:0.5, 26 hours): 52.0%
Compound: COc1ccc(C[C@@H]2c3cc(OC)c(OC)cc3CC[N@+]2(C)CCC(=O)OCCCCCOC(=O)CC[N@@+]2(C)CCc3cc(OC)c(OC)cc3[C@H]2Cc2ccc(OC)c(OC)c2)cc1OC [1R-cis,1′R-cis isomer, (1R,1′R,2R,2′R)-2,2′-[1,5-pentanediylbis[oxy(3-oxo-3,1-propanediyl)]]bis[1-[(3,4-dimethoxyphenyl)methyl]-1,2,3,4-tetrahydro-6,7-dimethoxy-2-methyl-isoquinolinium dibenzenesulfonate]
rate of loss in potency ([2]; at 25° C. (77° F.)): approximately 5 % per month
rate of loss of potency ([2]; under refrigeration (5° C.)): approximately 5 % per year

Reference: US8461338B2, “(1R, 1′R)-atracurium salts separation process” (Chemagis Ltd., priority 2007, dated 2013)
